Assay results as given in US12421210B2, “Fused bicyclic heterocycles as therapeutic agents” (NEW YORK UNIVERSITY, priority 2018, dated 2025).

Target: human NAMPT enzyme (His-hNAMPT) (Homo sapiens (Human), UniProt P43490)
Test: NAMPT enzymatic inhibition assay (fluorescence, NADH product)
Type: biochemical
Details: [HDB]; read-out: NAMPT IC50 (μM) [HDB]

Chain of human NAMPT enzyme (His-hNAMPT) (P43490 whole entry): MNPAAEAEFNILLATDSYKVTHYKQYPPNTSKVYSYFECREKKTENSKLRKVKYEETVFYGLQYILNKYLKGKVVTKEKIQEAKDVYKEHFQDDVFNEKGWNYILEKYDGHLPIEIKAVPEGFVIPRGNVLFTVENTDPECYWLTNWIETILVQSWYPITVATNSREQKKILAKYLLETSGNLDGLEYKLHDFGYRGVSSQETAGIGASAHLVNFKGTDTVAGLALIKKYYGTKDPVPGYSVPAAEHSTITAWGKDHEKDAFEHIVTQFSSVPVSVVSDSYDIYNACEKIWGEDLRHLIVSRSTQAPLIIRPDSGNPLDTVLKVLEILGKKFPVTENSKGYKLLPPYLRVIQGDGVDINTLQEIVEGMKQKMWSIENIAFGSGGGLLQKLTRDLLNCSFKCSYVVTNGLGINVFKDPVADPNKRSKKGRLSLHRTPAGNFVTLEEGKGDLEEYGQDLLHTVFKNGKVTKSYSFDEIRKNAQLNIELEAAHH

SMILES	IC50 [µM]
CC(c1cccnc1)N1C[C@@H]2[C@@H](CCNC(=O)/C=C/c3cccnc3)[C@@H]2C1 (stereo partly drawn) [Example 320, (E)-3-(pyridin-3-yl)-N-(2-((1R,5S,6s)-3-(1-(pyridin-3-yl)ethyl)-3-azabicyclo[3.1.0]hexan-6-yl)ethyl)acrylamide]	< 0.01
CC(c1ccccn1)N1C[C@@H]2[C@@H](CCNC(=O)/C=C/c3cccnc3)[C@@H]2C1 (stereo partly drawn) [Example 321, (E)-N-(2-((1R,5S,6s)-3-(1-(pyridin-2-yl)ethyl)-3-azabicyclo[3.1.0]hexan-6-yl)ethyl)-3-(pyridin-3-yl)acrylamide]	0.01 to 0.49
CC(c1ccc(F)cc1)N1C[C@@H]2[C@@H](CCNC(=O)/C=C/c3cccnc3)[C@@H]2C1 (stereo partly drawn) [Example 322, (E)-N-(2-((1R,5S,6s)-3-(1-(4-fluorophenyl)ethyl)-3-azabicyclo[3.1.0]hexan-6-yl)ethyl)-3-(pyridin-3-yl)acrylamide]	0.01 to 0.49
CC(c1cccc(F)c1)N1C[C@@H]2[C@@H](CCNC(=O)/C=C/c3cccnc3)[C@@H]2C1 (stereo partly drawn) [Example 323, (E)-N-(2-((1R,5S,6s)-3-(1-(3-fluorophenyl)ethyl)-3-azabicyclo[3.1.0]hexan-6-yl)ethyl)-3-(pyridin-3-yl)acrylamide]	< 0.01
O=C(/C=C/c1cccnc1)NCC[C@@H]1[C@H]2CN(c3nc(N4CCNCC4)ncc3F)C[C@@H]12 [Example 324, (E)-N-(2-((1R,5S,6s)-3-(5-fluoro-2-(piperazin-1-yl)pyrimidin-4-yl)-3-azabicyclo[3.1.0]hexan-6-yl)ethyl)-3-(pyridin-3-yl)acrylamide]	0.01 to 0.49
CN1CCN(c2ncc(F)c(N3C[C@@H]4[C@@H](CCNC(=O)/C=C/c5cccnc5)[C@@H]4C3)n2)CC1 [Example 325, (E)-N-(2-((1R,5S,6s)-3-(5-fluoro-2-(4-methylpiperazin-1-yl)pyrimidin-4-yl)-3-azabicyclo[3.1.0]hexan-6-yl)ethyl)-3-(pyridin-3-yl)acrylamide]	< 0.01
O=C(/C=C/c1cccnc1)NCC[C@@H]1[C@H]2CN(c3nc(N4CCC(O)C4)ncc3F)C[C@@H]12 (stereo partly drawn) [Example 326, (E)-N-(2-((1R,5S,6s)-3-(5-fluoro-2-(3-hydroxypyrrolidin-1-yl)pyrimidin-4-yl)-3-azabicyclo[3.1.0]hexan-6-yl)ethyl)-3-(pyridin-3-yl)acrylamide]	< 0.01
CNc1ncc(F)c(N2C[C@@H]3[C@@H](CCNC(=O)/C=C/c4cccnc4)[C@@H]3C2)n1 [Example 327, (E)-N-(2-((1R,5S,6s)-3-(5-fluoro-2-(methylamino)pyrimidin-4-yl)-3-azabicyclo[3.1.0]hexan-6-yl)ethyl)-3-(pyridin-3-yl)acrylamide]	< 0.01
CNC(=O)COc1ncc(F)c(N2C[C@@H]3[C@@H](CCNC(=O)/C=C/c4cccnc4)[C@@H]3C2)n1 [Example 328, (E)-N-(2-((1R,5S,6s)-3-(5-fluoro-2-(2-(methylamino)-2-oxoethoxy)pyrimidin-4-yl)-3-azabicyclo[3.1.0]hexan-6-yl)ethyl)-3-(pyridin-3-yl)acrylamide]	0.01 to 0.49
CCN(CC)C(=O)COc1ncc(F)c(N2C[C@@H]3[C@@H](CCNC(=O)/C=C/c4cccnc4)[C@@H]3C2)n1 [Example 329, (E)-N-(2-((1R,5S,6s)-3-(2-(2-(diethylamino)-2-oxoethoxy)-5-fluoropyrimidin-4-yl)-3-azabicyclo[3.1.0]hexan-6-yl)ethyl)-3-(pyridin-3-yl)acrylamide]	0.01 to 0.49
COc1ncc(F)c(N2C[C@@H]3[C@@H](CCNC(=O)/C=C/c4cncc(F)c4)[C@@H]3C2)n1 [Example 330, (E)-N-(2-((1R,5S,6s)-3-(5-fluoro-2-methoxypyrimidin-4-yl)-3-azabicyclo[3.1.0]hexan-6-yl)ethyl)-3-(5-fluoropyridin-3-yl)acrylamide]	0.01 to 0.49
O=C(/C=C/c1cccnc1)NCC[C@@H]1[C@H]2CN(c3nc(OCCN4CCOCC4)ncc3F)C[C@@H]12 [Example 331, (E)-N-(2-((1R,5S,6s)-3-(5-fluoro-2-(2-morpholinoethoxy)pyrimidin-4-yl)-3-azabicyclo[3.1.0]hexan-6-yl)ethyl)-3-(pyridin-3-yl)acrylamide]	< 0.01
COc1ncc(F)c(N2C[C@@H]3[C@@H](CCNC(=O)/C=C/c4cnccc4F)[C@@H]3C2)n1 [Example 332, (E)-N-(2-((1R,5S,6s)-3-(5-fluoro-2-methoxypyrimidin-4-yl)-3-azabicyclo[3.1.0]hexan-6-yl)ethyl)-3-(4-fluoropyridin-3-yl)acrylamide]	< 0.01
O=C(/C=C/c1cccnc1)NCC[C@@H]1[C@H]2CN(c3nc(N4CCNC(=O)C4)ncc3F)C[C@@H]12 [Example 333, (E)-N-(2-((1R,5S,6s)-3-(5-fluoro-2-(3-oxopiperazin-1-yl)pyrimidin-4-yl)-3-azabicyclo[3.1.0]hexan-6-yl)ethyl)-3-(pyridin-3-yl)acrylamide]	< 0.01
Cc1nc2cccc(N3C[C@@H]4[C@@H](CCNC(=O)/C=C/c5cccnc5)[C@@H]4C3)c2o1 [Example 334, (E)-N-(2-((1R,5S,6s)-3-(2-methylbenzo[d]oxazol-7-yl)-3-azabicyclo[3.1.0]hexan-6-yl)ethyl)-3-(pyridin-3-yl)acrylamide]	< 0.01
O=C(/C=C/c1cccnc1)NCC[C@@H]1[C@H]2CN(C(c3ccccc3)C3CCOCC3)C[C@@H]12 (stereo partly drawn) [Example 335, (E)-N-(2-((1R,5S,6s)-3-(phenyl(tetrahydro-2H-pyran-4-yl)methyl)-3-azabicyclo[3.1.0]hexan-6-yl)ethyl)-3-(pyridin-3-yl)acrylamide]	0.01 to 0.49
O=C(/C=C/c1cccnc1)NCC[C@@H]1[C@H]2CN(c3nc(-c4ncco4)ncc3F)C[C@@H]12 [Example 336, (E)-N-(2-((1R,5S,6s)-3-(5-fluoro-2-(oxazol-2-yl)pyrimidin-4-yl)-3-azabicyclo[3.1.0]hexan-6-yl)ethyl)-3-(pyridin-3-yl)acrylamide]	< 0.01
O=C(/C=C/c1cccnc1)NCC[C@@H]1[C@H]2CN(c3cccc4[nH]ncc34)C[C@@H]12 [Example 337, (E)-N-(2-((1R,5S,6s)-3-(1H-indazol-4-yl)-3-azabicyclo[3.1.0]hexan-6-yl)ethyl)-3-(pyridin-3-yl)acrylamide]	0.01 to 0.49
CCOP(=O)(OCC)c1cccc(N2C[C@@H]3[C@@H](CCNC(=O)/C=C/c4cccnc4)[C@@H]3C2)c1 [Example 338, diethyl (3-((1R,5S,6s)-6-(2-((E)-3-(pyridin-3-yl)acrylamido)ethyl)-3-azabicyclo[3.1.0]hexan-3-yl)phenyl)phosphonate]	0.01 to 0.49
COc1cc(N2C[C@@H]3[C@@H](CCNC(=O)/C=C/c4ccc(N)nc4)[C@@H]3C2)ccn1 [Example 339, (E)-3-(6-aminopyridin-3-yl)-N-(2-((1R,5S,6s)-3-(2-methoxypyridin-4-yl)-3-azabicyclo[3.1.0]hexan-6-yl)ethyl)acrylamide]	0.01 to 0.49
CC(c1ccc(F)cc1)N1C[C@@H]2[C@@H](CCNC(=O)/C=C/c3ccc(N)nc3)[C@@H]2C1 (stereo partly drawn) [Example 340, (E)-3-(6-aminopyridin-3-yl)-N-(2-((1R,5S,6s)-3-(1-(4-fluorophenyl)ethyl)-3-azabicyclo[3.1.0]hexan-6-yl)ethyl)acrylamide]	0.01 to 0.49
Nc1ccc(/C=C/C(=O)NCC[C@@H]2[C@H]3CN(c4ccc(F)cc4)C[C@@H]23)cn1 [Example 341, (E)-3-(6-aminopyridin-3-yl)-N-(2-((1R,5S,6s)-3-(4-fluorophenyl)-3-azabicyclo[3.1.0]hexan-6-yl)ethyl)acrylamide]	0.01 to 0.49
Cc1nc2nccc(N3C[C@@H]4[C@@H](CCNC(=O)/C=C/c5cccnc5)[C@@H]4C3)c2o1 [Example 342, (E)-N-(2-((1R,5S,6s)-3-(2-methyloxazolo[4,5-b]pyridin-7-yl)-3-azabicyclo[3.1.0]hexan-6-yl)ethyl)-3-(pyridin-3-yl)acrylamide]	0.01 to 0.49
